Results: ChEMBL document CHEMBL4177667, “Design, synthesis, and anticancer properties of isocorydine derivatives” (Bioorg Med Chem, 2017)
pIC50: −log10 of the molar value. Converted amounts (≈) assume the structure as drawn. The source made the active and inactive calls. No cut-off for these calls is given here.

Experiments:
HepG2 [1] = assay: Synergistic induction of apoptosis in human HepG2 cells assessed as late apoptotic cells at 10 ug/ml after 24 hrs in presence of sorafenib by Annexin V-FITC/propidium iodide staining-based flow cytometric analysis (reference value: 0%); assay type: functional
HepG2 [2] = assay: Synergistic growth inhibition against human HepG2 cells assessed as fold change in sorafenib IC50 at 10 ug/ml after 24 hrs by MTT assay; assay type: functional
H22 [3] = assay: Antitumor activity against mouse H22 cells implanted in mouse assessed as tumor growth inhibition at 100 mg/kg, ig qd administered for 10 consecutive days measured after 24 hrs post last dose relative to control; assay type: functional; settings: H22, po, read-out: TGI
H22 [4] = assay: Antitumor activity against mouse H22 cells implanted in mouse assessed as tumor growth inhibition at 50 mg/kg, ig qd administered for 10 consecutive days measured after 24 hrs post last dose relative to control; assay type: functional; settings: H22, po, read-out: TGI
HepG2 [5] = assay: Synergistic induction of apoptosis in human HepG2 cells assessed as viable cells at 10 ug/ml after 24 hrs in presence of sorafenib by Annexin V-FITC/propidium iodide staining-based flow cytometric analysis (reference value: 99.82%); assay type: functional; settings: HepG2, 24 h, read-out: Activity
HepG2 [6] = assay: Downregulation of Ki67 protein levels in human HepG2 cells after 48 hrs by Western blot analysis; assay type: functional, cell-based
U-251 = assay: Antiproliferative activity against human U251 cells after 48 hrs by MTT assay; assay type: functional, cell-based; settings: U-251, 48 h
HepG2 [7] = assay: Synergistic induction of apoptosis in human HepG2 cells assessed as early apoptotic cells at 10 ug/ml after 24 hrs in presence of sorafenib by Annexin V-FITC/propidium iodide staining-based flow cytometric analysis (reference value: 0.18%); assay type: functional
HepG2 [8] = assay: Synergistic downregulation of cyclin D1 protein levels in human HepG2 cells at 10 ug/ml after 48 hrs in presence of sorafenib by Western blot analysis; assay type: functional, cell-based
HepG2 [9] = assay: Induction of apoptosis in human HepG2 cells assessed as viable cells at 10 ug/ml after 24 hrs by Annexin V-FITC/propidium iodide staining-based flow cytometric analysis (reference value: 99.82%); assay type: functional; settings: HepG2, 24 h, read-out: Activity
HepG2 [10] = assay: Synergistic cell cycle arrest in human HepG2 cells assessed as decrease in accumulation of cells at G0/G1 phase at 10 ug/ml after 48 hrs in presence of sorafenib by propidium iodide staining-based flow cytometric analysis; assay type: functional
HepG2 [11] = assay: Induction of apoptosis in human HepG2 cells assessed as necrotic cells at 10 ug/ml after 24 hrs by Annexin V-FITC/propidium iodide staining-based flow cytometric analysis (reference value: 0%); assay type: functional
H22 [12] = assay: Antitumor activity against mouse H22 cells implanted in mouse assessed as tumor growth inhibition at 150 mg/kg, ip qd administered for 10 consecutive days measured after 24 hrs post last dose relative to control; assay type: functional; settings: read-out: TGI
H22 [13] = assay: Antitumor activity against mouse H22 cells implanted in mouse assessed as tumor growth inhibition at 150 mg/kg, ig qd administered for 10 consecutive days measured after 24 hrs post last dose relative to control; assay type: functional; settings: H22, po, read-out: TGI
H22 [14] = assay: Antitumor activity against mouse H22 cells implanted in mouse assessed as tumor growth inhibition at 50 mg/kg, ip qd administered for 10 consecutive days measured after 24 hrs post last dose relative to control; assay type: functional; settings: read-out: TGI
HepG2 [15] = assay: Downregulation of C-myc protein levels in human HepG2 cells after 48 hrs by Western blot analysis; assay type: functional, cell-based
H22 [16] = assay: Synergistic antitumor activity against mouse H22 cells implanted in mouse assessed as tumor growth inhibition at 100 mg/kg, ip or ig qd administered for 10 consecutive days measured after 24 hrs post last dose in presence of sorafenib relative to control; assay type: functional; settings: read-out: TGI
HepG2 [17] = assay: Synergistic downregulation of Ki67 protein levels in human HepG2 cells at 10 ug/ml after 48 hrs in presence of sorafenib by Western blot analysis; assay type: functional, cell-based
HepG2 [18] = assay: Synergistic growth inhibition against human HepG2 cells assessed as fold change in sorafenib IC50 at 2.50 ug/ml after 24 hrs by MTT assay; assay type: functional
HepG2 [19] = assay: Downregulation of beta-Catenin protein levels in human HepG2 cells after 48 hrs by Western blot analysis; assay type: functional, cell-based
HepG2 [20] = assay: Induction of apoptosis in human HepG2 cells assessed as early apoptotic cells at 10 ug/ml after 24 hrs by Annexin V-FITC/propidium iodide staining-based flow cytometric analysis (reference value: 0.18%); assay type: functional
HeLa = assay: cells; settings: Homo sapiens, 48 h
HepG2 [21] = assay: Induction of apoptosis in human HepG2 cells assessed as necrotic cells at 5 ug/ml after 24 hrs by Annexin V-FITC/propidium iodide staining-based flow cytometric analysis (reference value: 0%); assay type: functional
HepG2 [22] = assay: Synergistic growth inhibition against human HepG2 cells assessed as fold change in sorafenib IC50 at 5 ug/ml after 24 hrs by MTT assay; assay type: functional
HepG2 [23] = assay: Synergistic upregulation of vementin protein levels in human HepG2 cells at 10 ug/ml after 48 hrs in presence of sorafenib by Western blot analysis; assay type: functional, cell-based
HepG2 [24] = assay: Cell cycle arrest in human HepG2 cells assessed as decrease in accumulation of cells at G0/G1 phase at 10 ug/ml after 48 hrs by propidium iodide staining-based flow cytometric analysis; assay type: functional
HepG2 [25] = assay: Antiproliferative activity against human HepG2 cells after 72 hrs by MTT assay; assay type: functional, cell-based; settings: HepG2, 72 h
HepG2 [26] = assay: Synergistic induction of apoptosis in human HepG2 cells assessed as necrotic cells at 10 ug/ml after 24 hrs in presence of sorafenib by Annexin V-FITC/propidium iodide staining-based flow cytometric analysis (reference value: 0%); assay type: functional
H22 [27] = assay: Synergistic antitumor activity against mouse H22 cells implanted in mouse assessed as tumor growth inhibition at 50 mg/kg, ip or ig qd administered for 10 consecutive days measured after 24 hrs post last dose in presence of sorafenib relative to control; assay type: functional; settings: read-out: TGI
MGC-803 = assay: Antiproliferative activity against human MGC803 cells after 48 hrs by MTT assay; assay type: functional, cell-based; settings: MGC-803, 48 h
HepG2 [28] = assay: Upregulation of vimentin protein levels in human HepG2 cells at 5 to 20 ug/ml after 48 hrs by Western blot analysis; assay type: functional, cell-based
HepG2 [29] = assay: Downregulation of cyclin D1 protein levels in human HepG2 cells after 48 hrs by Western blot analysis; assay type: functional, cell-based
SMMC-7721 = assay: Antiproliferative activity against human SMMC7721 cells after 48 hrs by MTT assay; assay type: functional, cell-based; settings: SMMC-7721, 48 h
HepG2 [30] = assay: Cell cycle arrest in human HepG2 cells assessed as increase in accumulation of cells at G2/M phase at 10 ug/ml after 48 hrs by propidium iodide staining-based flow cytometric analysis; assay type: functional
HepG2 [31] = assay: cells; settings: Homo sapiens, HepG2, 24 h
Description: Antiproliferative activity against human HepG2 cells after 24 hrs by MTT assay

HepG2 [32] = assay: Induction of apoptosis in human HepG2 cells assessed as early apoptotic cells at 5 ug/ml after 24 hrs by Annexin V-FITC/propidium iodide staining-based flow cytometric analysis (reference value: 0.18%); assay type: functional
H22 [33] = assay: Antitumor activity against mouse H22 cells implanted in mouse assessed as tumor growth inhibition at 100 mg/kg, ip qd administered for 10 consecutive days measured after 24 hrs post last dose relative to control; assay type: functional; settings: read-out: TGI
HepG2 [34] = assay: Induction of apoptosis in human HepG2 cells assessed as viable cells at 5 ug/ml after 24 hrs by Annexin V-FITC/propidium iodide staining-based flow cytometric analysis (reference value: 99.82%); assay type: functional; settings: HepG2, 24 h, read-out: Activity
HepG2 [35] = assay: Synergistic downregulation of beta-catenin protein levels in human HepG2 cells at 10 ug/ml after 48 hrs in presence of sorafenib by Western blot analysis; assay type: functional, cell-based
HepG2 [36] = assay: Synergistic downregulation of C-myc protein levels in human HepG2 cells at 10 ug/ml after 48 hrs in presence of sorafenib by Western blot analysis; assay type: functional, cell-based
HepG2 [37] = assay: Induction of apoptosis in human HepG2 cells assessed as late apoptotic cells at 5 ug/ml after 24 hrs by Annexin V-FITC/propidium iodide staining-based flow cytometric analysis (reference value: 0%); assay type: functional
H22 [38] = assay: Synergistic antitumor activity against mouse H22 cells implanted in mouse assessed as tumor growth inhibition at 150 mg/kg, ip or ig qd administered for 10 consecutive days measured after 24 hrs post last dose in presence of sorafenib relative to control; assay type: functional; settings: read-out: TGI
HepG2 [39] = assay: cells; settings: Homo sapiens, HepG2, 48 h
MDA-MB-231 = assay: Antiproliferative activity against human MDA-MB-231 cells after 48 hrs by MTT assay; assay type: functional, cell-based; settings: MDA-MB-231, 48 h
HepG2 [40] = assay: Induction of apoptosis in human HepG2 cells assessed as late apoptotic cells at 10 ug/ml after 24 hrs by Annexin V-FITC/propidium iodide staining-based flow cytometric analysis (reference value: 0%); assay type: functional

## COc1cc(NC(=O)Nc2ccc(Cl)c(C(F)(F)F)c2)c2c(c1O)-c1c(OC)c(OC)cc3c1[C@H](C2)N(C)CC3
HepG2 [1]
  Activity: 19.34%
HepG2 [2]
  fold change (FC): 2.04
H22 [3]
  inhibition in vivo at 100 mg/kg: 48.2%
H22 [4]
  inhibition in vivo at 50 mg/kg: 40.1%
HepG2 [5]
  viability at 10 µg/mL: 36.3%
HepG2 [6]
  Activity: Dose-dependent effect
U-251
  IC50: 10.1 µg/mL (≈ 17.5 µM)
HepG2 [7]
  Activity: 44.33%
HepG2 [8]
  Activity: Active
HepG2 [9]
  viability at 10 µg/mL: 88.1%
HepG2 [10]
  Activity: Active
HepG2 [11]
  Activity: 0.04%
H22 [12]
  inhibition in vivo at 150 mg/kg: 50.8%
H22 [13]
  inhibition in vivo at 150 mg/kg: 53.4%
H22 [14]
  inhibition in vivo at 50 mg/kg: 40.3%
HepG2 [15]
  Activity: Dose-dependent effect
H22 [16]
  inhibition in vivo at 100 mg/kg: 65.1%
HepG2 [17]
  Activity: Active
HepG2 [18]
  fold change (FC): 0.91
HepG2 [19]
  Activity: Dose-dependent effect
HepG2 [20]
  Activity: 3.11%
HeLa
  pIC50: 4.58
HepG2 [21]
  Activity: 0.07%
HepG2 [22]
  fold change (FC): 1.25
HepG2 [23]
  Activity: inactive
HepG2 [24]
  Activity: Active
HepG2 [25]
  IC50: 6.7 µg/mL (≈ 11.6 µM)
HepG2 [26]
  Activity: 0.06%
H22 [27]
  inhibition in vivo at 50 mg/kg: 63.1%
MGC-803
  pIC50: 4.78
HepG2 [28]
  Activity: Active
HepG2 [29]
  Activity: Dose-dependent effect
SMMC-7721
  IC50: 18.6 µg/mL (≈ 32.2 µM)
HepG2 [30]
  Activity: Active
HepG2 [31]
  IC50: 16.8 µg/mL (≈ 29.1 µM)
HepG2 [32]
  Activity: 6.8%
H22 [33]
  inhibition in vivo at 100 mg/kg: 46.3%
HepG2 [34]
  viability at 5 µg/mL: 91%
HepG2 [35]
  Activity: Active
HepG2 [36]
  Activity: Active
HepG2 [37]
  Activity: 2.14%
H22 [38]
  inhibition in vivo at 150 mg/kg: 70.6%
HepG2 [39]
  pIC50: 4.77
MDA-MB-231
  IC50: 15.6 µg/mL (≈ 27 µM)
HepG2 [40]
  Activity: 8.78%
